From patent US10758549B2, “Compositions of obeticholic acid and methods of use” (Intercept Pharmaceuticals, Inc., priority 2015, dated 2020)

Biological target: T1, CYP2C8 (Homo sapiens, UniProt P10632)
T1 sequence (P10632 1-490): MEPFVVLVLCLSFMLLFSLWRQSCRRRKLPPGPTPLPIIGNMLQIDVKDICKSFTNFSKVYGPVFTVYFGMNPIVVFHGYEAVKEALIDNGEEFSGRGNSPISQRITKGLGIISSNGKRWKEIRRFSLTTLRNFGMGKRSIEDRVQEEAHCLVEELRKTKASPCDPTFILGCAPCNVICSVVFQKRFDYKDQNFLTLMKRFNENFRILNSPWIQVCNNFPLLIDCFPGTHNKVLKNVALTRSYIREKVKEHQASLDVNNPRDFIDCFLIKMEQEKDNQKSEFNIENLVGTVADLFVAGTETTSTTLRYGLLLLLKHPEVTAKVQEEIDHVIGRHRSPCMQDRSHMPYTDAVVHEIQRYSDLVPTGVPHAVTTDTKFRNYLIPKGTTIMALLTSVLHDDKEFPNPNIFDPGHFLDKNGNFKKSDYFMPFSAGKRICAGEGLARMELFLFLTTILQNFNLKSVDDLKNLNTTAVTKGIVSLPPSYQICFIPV
Experiment: In vitro studies: CYP inhibition
Type: in vitro ADME

`CC[C@H]1[C@@H](O)[C@@H]2[C@H](CC[C@]3(C)[C@@H]([C@H](C)CCC(=O)O)CC[C@@H]23)[C@@]2(C)CC[C@@H](O)C[C@@H]12` [OCA, 3α,7α-dihydroxy-6α-ethyl-5β-cholan-24-oic acid] was tested, and the “inhibition of CYP2C8” value was “not an inhibitor”.
